The text below walks through data of article PMC4620497 (Scientific Reports, 2015).

SMILES strings stand for the structures.

Experiment [1] deals with ERBB2 (Homo sapiens, UniProt P04626). On the set-up: method as in earlier work. As to conditions: Table S1; cited from earlier work.
In experiment [2] the target is T1, DMPK (Homo sapiens, UniProt Q09013).
T1 construct: purchased DiscoveRx KINOMEscan (Ambit Biosciences)
T1 sequence (Q09013 1-629): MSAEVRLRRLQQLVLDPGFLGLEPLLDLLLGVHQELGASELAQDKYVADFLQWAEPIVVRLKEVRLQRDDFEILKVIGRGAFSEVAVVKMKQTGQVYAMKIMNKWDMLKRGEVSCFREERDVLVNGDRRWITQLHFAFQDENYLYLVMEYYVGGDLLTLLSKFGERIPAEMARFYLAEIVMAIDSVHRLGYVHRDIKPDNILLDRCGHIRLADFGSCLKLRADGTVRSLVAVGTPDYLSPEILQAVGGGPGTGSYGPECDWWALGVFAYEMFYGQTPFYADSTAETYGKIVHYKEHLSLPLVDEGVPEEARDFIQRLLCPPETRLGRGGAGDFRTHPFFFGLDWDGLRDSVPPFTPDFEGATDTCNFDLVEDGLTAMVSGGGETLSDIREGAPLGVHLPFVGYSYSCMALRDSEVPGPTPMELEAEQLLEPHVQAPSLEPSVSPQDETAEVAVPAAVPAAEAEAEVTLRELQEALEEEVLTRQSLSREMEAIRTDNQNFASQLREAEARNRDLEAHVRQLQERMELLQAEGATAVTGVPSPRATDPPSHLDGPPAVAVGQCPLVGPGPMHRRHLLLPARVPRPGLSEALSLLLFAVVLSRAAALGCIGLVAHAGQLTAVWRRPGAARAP
Set-up: method as in earlier work. The settings on record: Table S1; cited from earlier work.

The target of experiment [3] is T2, PRKCD (Homo sapiens, UniProt Q05655).
T2 construct: purchased DiscoveRx KINOMEscan (Ambit Biosciences)
Nature of the experiment: KINOMEscan panel screen. Type of experiment: binding. As to conditions: read-out: Percent Control(%).

Experiment [4] concerns the target T3, RET(M918T) (Homo sapiens, UniProt P07949, M918T).
T3 construct: purchased DiscoveRx KINOMEscan (Ambit Biosciences)
Put plainly: KINOMEscan panel screen. The experiment is classed as binding. As to conditions: read-out: Percent Control(%).

For experiment [5], the target named is T4, BRK (Homo sapiens, UniProt Q13882).
T4 construct: purchased DiscoveRx KINOMEscan (Ambit Biosciences)
Put plainly: KINOMEscan panel screen. The experiment is classed as binding. As to conditions: read-out: Percent Control(%).

The target of experiment [6] is T5, SYK (Homo sapiens, UniProt P43405).
T5 construct: purchased DiscoveRx KINOMEscan (Ambit Biosciences)
Nature of the experiment: KINOMEscan panel screen. Type of experiment: binding. The settings on record: read-out: Percent Control(%).

Experiment [7] has as its target T6, ERK8 (Homo sapiens, UniProt Q8TD08).
T6 construct: purchased DiscoveRx KINOMEscan (Ambit Biosciences)
Put plainly: KINOMEscan panel screen. The experiment is classed as binding. As to conditions: read-out: Percent Control(%).

For experiment [8], the target named is T7, ACVRL1 (Homo sapiens, UniProt P37023).
T7 construct: purchased DiscoveRx KINOMEscan (Ambit Biosciences)
Nature of the experiment: KINOMEscan panel screen. The settings on record: read-out: Percent Control(%). The experiment is classed as binding.

Experiment [9] deals with T8, S6K1 (Homo sapiens, UniProt P23443).
T8 construct: purchased DiscoveRx KINOMEscan (Ambit Biosciences)
Put plainly: KINOMEscan panel screen. The experiment is classed as binding. The settings on record: read-out: Percent Control(%).

Experiment [10] addresses T9, PCTK2 (Homo sapiens, UniProt Q00537).
T9 construct: purchased DiscoveRx KINOMEscan (Ambit Biosciences)
Nature of the experiment: KINOMEscan panel screen. The experiment is classed as binding. As to conditions: read-out: Percent Control(%).

The target of experiment [11] is T10, RAF1 (Homo sapiens, UniProt P04049).
T10 construct: purchased DiscoveRx KINOMEscan (Ambit Biosciences)
Nature of the experiment: KINOMEscan panel screen. Type of experiment: binding. As to conditions: read-out: Percent Control(%).

Experiment [12] deals with T11, FYN (Homo sapiens, UniProt P06241).
T11 construct: purchased DiscoveRx KINOMEscan (Ambit Biosciences)
Put plainly: KINOMEscan panel screen. The experiment is classed as binding. As to conditions: read-out: Percent Control(%).

For experiment [13], the target named is T12, MEK6 (Homo sapiens, UniProt P52564).
T12 construct: purchased DiscoveRx KINOMEscan (Ambit Biosciences)
Nature of the experiment: KINOMEscan panel screen. As to conditions: read-out: Percent Control(%). Type of experiment: binding.

Experiment [14] addresses T13, TGFBR1 (Homo sapiens, UniProt P36897).
T13 construct: DNA tag (qPCR read-out); purchased Ambit Biosciences (KINOMEscan service)
Nature of the experiment: KINOMEscan panel screen. The experiment is classed as binding. The settings on record: read-out: Percent Control(%).

Experiment [15] has as its system SW620. Put plainly: MTT cell viability assay. The settings on record: Homo sapiens, SW-620, 72 h.
Experiment [16] has as its target T14, NEK3 (Homo sapiens, UniProt P51956).
T14 construct: purchased DiscoveRx KINOMEscan (Ambit Biosciences)
Nature of the experiment: KINOMEscan panel screen. The experiment is classed as binding. As to conditions: read-out: Percent Control(%).

Experiment [17] has as its target T15, MAPKAPK5 (Homo sapiens, UniProt Q8IW41).
T15 construct: purchased DiscoveRx KINOMEscan (Ambit Biosciences)
Put plainly: KINOMEscan panel screen. The settings on record: read-out: Percent Control(%). The experiment is classed as binding.

Experiment [18] addresses T16, FLT1 (Homo sapiens, UniProt P17948).
T16 construct: purchased DiscoveRx KINOMEscan (Ambit Biosciences)
Put plainly: KINOMEscan panel screen. Type of experiment: binding. As to conditions: read-out: Percent Control(%).

In experiment [19] the target is T17, MET (Homo sapiens, UniProt P08581).
T17 construct: purchased DiscoveRx KINOMEscan (Ambit Biosciences)
Nature of the experiment: KINOMEscan panel screen. Type of experiment: binding. As to conditions: read-out: Percent Control(%).

Experiment [20] addresses T18, PIK3CA (Homo sapiens, UniProt P42336).
T18 construct: purchased DiscoveRx KINOMEscan (Ambit Biosciences)
Put plainly: KINOMEscan panel screen. As to conditions: read-out: Percent Control(%). Type of experiment: binding.

In experiment [21] the target is T19, AURKA (Homo sapiens, UniProt O14965).
T19 construct: purchased DiscoveRx KINOMEscan (Ambit Biosciences)
Put plainly: KINOMEscan panel screen. Type of experiment: binding. As to conditions: read-out: Percent Control(%).

The target of experiment [22] is T20, FLT3-wt (Homo sapiens, UniProt P36888).
T20 construct: DNA tag (qPCR read-out); purchased Ambit Biosciences (KINOMEscan service)
Put plainly: KINOMEscan kinase binding assay (Kd).

The target in experiment [23] is T21, DMPK2 (Homo sapiens, UniProt Q6DT37).
T21 construct: purchased DiscoveRx KINOMEscan (Ambit Biosciences)
Nature of the experiment: KINOMEscan panel screen. The experiment is classed as binding. The settings on record: read-out: Percent Control(%).

The test system of experiment [24] is PANC-1. Put plainly: MTT cell viability assay. As to conditions: Homo sapiens, PANC-1, 72 h. In general terms: Tetrazolium assays rely on reduction of a dye to a coloured formazan, in cell work by metabolically active cells.
Experiment [25] addresses T22, PAK4 (Homo sapiens, UniProt O96013).
T22 construct: DNA tag (qPCR read-out); purchased Ambit Biosciences (KINOMEscan service)
Nature of the experiment: KINOMEscan panel screen. As to conditions: read-out: Percent Control(%). Type of experiment: binding.

Experiment [26] deals with T23, JAK1(JH2domain-pseudokinase) (Homo sapiens, UniProt P23458).
T23 construct: JAK1(JH2domain-pseudokinase); purchased DiscoveRx KINOMEscan (Ambit Biosciences)
Nature of the experiment: KINOMEscan panel screen. As to conditions: read-out: Percent Control(%). Type of experiment: binding.

The target of experiment [27] is T24, STK39 (Homo sapiens, UniProt Q9UEW8).
T24 construct: purchased DiscoveRx KINOMEscan (Ambit Biosciences)
Nature of the experiment: KINOMEscan panel screen. The experiment is classed as binding. The settings on record: read-out: Percent Control(%).

The target of experiment [28] is T25, PRKD1 (Homo sapiens, UniProt Q15139).
T25 construct: purchased DiscoveRx KINOMEscan (Ambit Biosciences)
Put plainly: KINOMEscan panel screen. The experiment is classed as binding. As to conditions: read-out: Percent Control(%).

For experiment [29], the target named is T26, IRAK4 (Homo sapiens, UniProt Q9NWZ3).
T26 construct: purchased DiscoveRx KINOMEscan (Ambit Biosciences)
Put plainly: KINOMEscan panel screen. Type of experiment: binding. The settings on record: read-out: Percent Control(%).

The target in experiment [30] is T27, TEC (Homo sapiens, UniProt P42680).
T27 construct: purchased DiscoveRx KINOMEscan (Ambit Biosciences)
Put plainly: KINOMEscan panel screen. As to conditions: read-out: Percent Control(%). The experiment is classed as binding.

In experiment [31] the target is T28, RSK4(Kin.Dom.1-N-terminal) (Homo sapiens, UniProt Q9UK32).
T28 construct: RSK4(Kin.Dom.1-N-terminal); purchased DiscoveRx KINOMEscan (Ambit Biosciences)
Nature of the experiment: KINOMEscan panel screen. Type of experiment: binding. The settings on record: read-out: Percent Control(%).

For experiment [32], the target named is T29, CSK (Homo sapiens, UniProt P41240).
T29 construct: purchased DiscoveRx KINOMEscan (Ambit Biosciences)
Nature of the experiment: KINOMEscan panel screen. Type of experiment: binding. The settings on record: read-out: Percent Control(%).

Experiment [33] has as its target T30, CDK4-cyclinD3 (Homo sapiens, UniProt P11802).
T30 construct: purchased DiscoveRx KINOMEscan (Ambit Biosciences)
Nature of the experiment: KINOMEscan panel screen. As to conditions: read-out: Percent Control(%). The experiment is classed as binding.

Experiment [34] deals with T31, YANK1 (Homo sapiens, UniProt Q8WU08).
T31 construct: purchased DiscoveRx KINOMEscan (Ambit Biosciences)
Nature of the experiment: KINOMEscan panel screen. As to conditions: read-out: Percent Control(%). The experiment is classed as binding.

T25 sequence (Q15139 whole entry): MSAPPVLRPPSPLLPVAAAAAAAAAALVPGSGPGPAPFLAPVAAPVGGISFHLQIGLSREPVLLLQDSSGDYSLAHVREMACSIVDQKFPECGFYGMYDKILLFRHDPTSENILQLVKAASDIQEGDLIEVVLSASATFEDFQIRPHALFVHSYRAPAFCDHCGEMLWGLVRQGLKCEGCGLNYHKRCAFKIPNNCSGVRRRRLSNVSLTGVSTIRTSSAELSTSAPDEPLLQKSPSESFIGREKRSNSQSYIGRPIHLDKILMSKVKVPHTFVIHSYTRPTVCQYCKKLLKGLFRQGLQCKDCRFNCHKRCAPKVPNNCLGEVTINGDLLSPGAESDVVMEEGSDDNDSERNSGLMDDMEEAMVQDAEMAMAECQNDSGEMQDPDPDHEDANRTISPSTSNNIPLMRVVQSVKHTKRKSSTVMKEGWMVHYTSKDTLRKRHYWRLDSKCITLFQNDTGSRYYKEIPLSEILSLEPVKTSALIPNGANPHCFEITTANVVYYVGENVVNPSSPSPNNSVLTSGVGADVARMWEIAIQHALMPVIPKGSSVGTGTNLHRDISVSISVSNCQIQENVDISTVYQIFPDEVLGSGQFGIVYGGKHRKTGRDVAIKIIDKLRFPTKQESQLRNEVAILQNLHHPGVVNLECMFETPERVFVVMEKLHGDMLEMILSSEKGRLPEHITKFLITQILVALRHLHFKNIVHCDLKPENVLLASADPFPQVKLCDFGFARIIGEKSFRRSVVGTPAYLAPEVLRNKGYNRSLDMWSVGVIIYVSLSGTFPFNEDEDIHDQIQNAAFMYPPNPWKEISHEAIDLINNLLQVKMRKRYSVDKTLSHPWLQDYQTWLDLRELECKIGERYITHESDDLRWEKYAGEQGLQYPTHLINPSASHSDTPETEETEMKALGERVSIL
T10 sequence (P04049 whole entry): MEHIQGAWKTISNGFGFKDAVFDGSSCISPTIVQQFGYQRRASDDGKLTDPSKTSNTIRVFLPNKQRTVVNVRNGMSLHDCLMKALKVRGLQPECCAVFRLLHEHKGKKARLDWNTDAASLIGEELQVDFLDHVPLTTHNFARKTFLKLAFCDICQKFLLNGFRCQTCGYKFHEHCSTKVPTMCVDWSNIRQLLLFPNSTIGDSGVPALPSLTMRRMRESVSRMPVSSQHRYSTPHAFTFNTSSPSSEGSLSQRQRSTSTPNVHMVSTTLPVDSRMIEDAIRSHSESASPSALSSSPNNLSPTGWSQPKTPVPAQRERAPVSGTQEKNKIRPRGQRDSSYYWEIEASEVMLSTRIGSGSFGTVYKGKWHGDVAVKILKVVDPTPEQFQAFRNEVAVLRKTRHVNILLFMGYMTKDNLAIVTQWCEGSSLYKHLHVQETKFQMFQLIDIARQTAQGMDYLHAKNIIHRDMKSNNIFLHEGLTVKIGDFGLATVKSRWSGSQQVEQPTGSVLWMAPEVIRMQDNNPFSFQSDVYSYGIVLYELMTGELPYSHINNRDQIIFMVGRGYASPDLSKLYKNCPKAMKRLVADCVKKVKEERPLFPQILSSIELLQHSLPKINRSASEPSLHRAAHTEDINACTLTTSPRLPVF
T16 sequence (P17948 27-1338): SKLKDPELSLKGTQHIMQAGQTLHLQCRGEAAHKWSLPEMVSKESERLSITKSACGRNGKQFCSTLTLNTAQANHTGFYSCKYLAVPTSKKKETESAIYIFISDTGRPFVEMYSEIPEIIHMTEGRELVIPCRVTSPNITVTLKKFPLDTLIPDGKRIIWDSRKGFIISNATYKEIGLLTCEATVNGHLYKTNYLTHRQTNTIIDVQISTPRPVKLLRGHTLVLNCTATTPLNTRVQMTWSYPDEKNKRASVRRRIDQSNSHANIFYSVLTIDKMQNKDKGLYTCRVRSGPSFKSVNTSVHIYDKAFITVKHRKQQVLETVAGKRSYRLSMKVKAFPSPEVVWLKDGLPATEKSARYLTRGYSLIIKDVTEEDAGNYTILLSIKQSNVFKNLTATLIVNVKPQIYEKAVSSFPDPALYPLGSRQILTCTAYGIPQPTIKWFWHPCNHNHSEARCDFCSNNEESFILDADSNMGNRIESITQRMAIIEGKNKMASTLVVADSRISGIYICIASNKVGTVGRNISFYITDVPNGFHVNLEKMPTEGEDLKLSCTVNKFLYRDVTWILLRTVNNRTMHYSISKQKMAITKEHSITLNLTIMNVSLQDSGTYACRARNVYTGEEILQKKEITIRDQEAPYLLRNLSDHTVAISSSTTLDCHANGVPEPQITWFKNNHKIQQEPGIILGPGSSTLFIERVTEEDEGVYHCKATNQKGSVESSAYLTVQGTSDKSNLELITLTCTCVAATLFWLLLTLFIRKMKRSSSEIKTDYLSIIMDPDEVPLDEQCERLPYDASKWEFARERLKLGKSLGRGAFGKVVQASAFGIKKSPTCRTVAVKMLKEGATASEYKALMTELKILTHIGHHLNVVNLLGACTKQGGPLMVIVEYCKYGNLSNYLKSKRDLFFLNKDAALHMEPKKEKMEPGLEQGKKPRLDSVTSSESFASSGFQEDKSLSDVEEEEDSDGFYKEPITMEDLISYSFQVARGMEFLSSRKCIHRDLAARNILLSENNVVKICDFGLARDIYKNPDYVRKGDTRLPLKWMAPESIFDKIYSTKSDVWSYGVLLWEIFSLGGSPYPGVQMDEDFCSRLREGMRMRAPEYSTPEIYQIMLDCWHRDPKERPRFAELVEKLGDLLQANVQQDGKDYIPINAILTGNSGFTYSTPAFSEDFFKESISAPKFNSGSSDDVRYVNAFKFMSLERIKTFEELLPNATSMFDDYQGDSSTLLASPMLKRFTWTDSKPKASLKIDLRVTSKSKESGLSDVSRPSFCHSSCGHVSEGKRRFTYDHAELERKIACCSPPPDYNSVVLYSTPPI
T13 sequence (P36897 34-503): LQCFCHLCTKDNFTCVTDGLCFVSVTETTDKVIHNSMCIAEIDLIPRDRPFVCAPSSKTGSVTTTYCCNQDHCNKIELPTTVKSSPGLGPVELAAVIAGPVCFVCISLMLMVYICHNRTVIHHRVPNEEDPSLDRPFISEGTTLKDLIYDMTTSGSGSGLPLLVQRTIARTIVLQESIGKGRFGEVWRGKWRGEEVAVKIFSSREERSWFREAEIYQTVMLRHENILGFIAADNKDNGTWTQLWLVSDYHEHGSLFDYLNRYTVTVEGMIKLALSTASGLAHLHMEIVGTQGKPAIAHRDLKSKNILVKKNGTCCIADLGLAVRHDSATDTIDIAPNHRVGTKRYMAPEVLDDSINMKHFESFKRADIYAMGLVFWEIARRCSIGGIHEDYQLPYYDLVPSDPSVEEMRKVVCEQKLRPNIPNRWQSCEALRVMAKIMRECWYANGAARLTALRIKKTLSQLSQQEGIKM
T8 sequence (P23443 whole entry): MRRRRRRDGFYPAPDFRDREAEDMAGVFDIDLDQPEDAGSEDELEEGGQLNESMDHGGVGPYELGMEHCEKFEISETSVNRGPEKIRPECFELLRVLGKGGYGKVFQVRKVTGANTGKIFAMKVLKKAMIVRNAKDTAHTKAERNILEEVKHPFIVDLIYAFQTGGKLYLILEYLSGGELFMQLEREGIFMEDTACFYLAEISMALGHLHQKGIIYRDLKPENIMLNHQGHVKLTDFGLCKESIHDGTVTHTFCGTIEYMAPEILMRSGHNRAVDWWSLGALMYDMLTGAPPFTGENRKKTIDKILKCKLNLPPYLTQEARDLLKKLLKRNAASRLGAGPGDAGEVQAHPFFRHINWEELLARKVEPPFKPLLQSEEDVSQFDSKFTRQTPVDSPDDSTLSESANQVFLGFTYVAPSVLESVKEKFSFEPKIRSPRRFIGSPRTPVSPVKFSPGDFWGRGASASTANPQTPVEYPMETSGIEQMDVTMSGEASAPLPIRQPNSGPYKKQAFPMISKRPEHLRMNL
T2 sequence (Q05655 whole entry): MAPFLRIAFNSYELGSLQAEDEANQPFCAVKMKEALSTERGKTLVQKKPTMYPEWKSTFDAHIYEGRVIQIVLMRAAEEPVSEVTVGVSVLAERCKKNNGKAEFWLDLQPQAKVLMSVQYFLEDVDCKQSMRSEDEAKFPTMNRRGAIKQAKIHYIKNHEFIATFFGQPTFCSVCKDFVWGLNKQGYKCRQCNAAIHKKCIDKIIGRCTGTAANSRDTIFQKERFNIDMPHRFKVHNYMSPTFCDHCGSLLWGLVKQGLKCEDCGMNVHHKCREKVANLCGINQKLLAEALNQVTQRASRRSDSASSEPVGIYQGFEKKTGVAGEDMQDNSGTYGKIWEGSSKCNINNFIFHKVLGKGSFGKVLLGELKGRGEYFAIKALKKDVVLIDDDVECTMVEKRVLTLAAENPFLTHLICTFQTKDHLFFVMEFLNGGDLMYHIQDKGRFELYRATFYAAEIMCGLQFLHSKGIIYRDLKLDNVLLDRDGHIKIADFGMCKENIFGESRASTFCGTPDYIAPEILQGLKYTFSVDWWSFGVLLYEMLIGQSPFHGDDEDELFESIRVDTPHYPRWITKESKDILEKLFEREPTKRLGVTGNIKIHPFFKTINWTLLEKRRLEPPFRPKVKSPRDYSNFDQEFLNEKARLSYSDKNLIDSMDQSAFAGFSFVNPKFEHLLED
T23 sequence (P23458 583-855 limits assumed): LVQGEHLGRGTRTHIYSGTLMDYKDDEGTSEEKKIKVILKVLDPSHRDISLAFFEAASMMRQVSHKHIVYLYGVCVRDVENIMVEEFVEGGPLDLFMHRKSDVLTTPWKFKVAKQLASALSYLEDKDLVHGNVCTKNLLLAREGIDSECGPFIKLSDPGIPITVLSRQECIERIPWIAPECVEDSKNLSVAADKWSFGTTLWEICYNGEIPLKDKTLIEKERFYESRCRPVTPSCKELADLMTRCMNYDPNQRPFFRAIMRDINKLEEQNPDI

By IC50 is commonly meant the point on the concentration scale where inhibition reaches its midpoint. With `O=C(Nc1ccc(Oc2ncnc3[nH]ncc23)cc1)Nc1ccc(Cl)c(C(F)(F)F)c1` [Compound 1, 1-(4-(1H-pyrazolo[3,4-d]pyrimidin-4-yloxy)phenyl)-3-(4-chloro-3-(trifluoromethyl)phenyl)urea], the 50% inhibitory concentration (IC50) in [1] and in experiment [2] was above 10 µM each time.
As usually defined, the Kd is a measure of binding affinity in units of concentration. A high value points to lower affinity. Take `CC(C)(C)c1cc(NC(=O)Nc2ccc(Oc3ncnc4[nH]ncc34)c(F)c2)no1` [SKLB-677, 1-(4-(1H-pyrazolo[3,4-d]pyrimidin-4-yloxy)-3-fluorophenyl)-3-(5-tert-butylisoxazol-3-yl)urea]: the remaining binding at 10 µM in experiment [3] is 61%; in experiment [4], 0%; in experiment [5], 23%; in experiment [6], 25%; in experiment [7], 0.8%; in experiment [8], 91%. Further, the remaining binding at 10 µM in experiment [9] was determined as 54%; in experiment [10] it was 0%; in [11] it was 3.5%; in experiment [12] it was 15%; in experiment [13] it was 62%; in experiment [14] it was 100%. The remaining binding at 10 µM in [16] came out at 41%; in experiment [17], 97%; in experiment [18], 0.05%; in experiment [19], 0.05%; in experiment [20] it was 100%; in experiment [21], 35%. Also, the remaining binding at 10 µM in experiment [23] worked out at 50%; in [25], 100%; in experiment [26] it was 74%; in [27], 100%; in [28], 98%; in experiment [29], 100%. Besides, the remaining binding at 10 µM worked out at 100% in experiment [30]; 64% in experiment [31]; 76% in experiment [32]; 4.8% in [33]; 88% in experiment [34]. The IC50 in experiment [15] and in [24] was above 10 µM each time. The compound further registered an equilibrium dissociation constant (Kd) in experiment [22] of 0.00074 µM.
